# In patent publication US7507739B2, “6-[(substituted)phenyl]triazolopyrimidines as anticancer agents” (Wyeth, priority 2003, dated 2009):
# Marks after values point to notes of the source that are not given here.
# Key:
# [1] = tested on: A549 Human Non-Small Cell Lung Carcinoma; assay: Human tumor xenograft test, A549; format: in vivo, athymic mice
# Procedure: (§1) The ability of compounds of this invention to inhibit tumor growth in animals is studied in the athymic mouse xenograft standard pharmacological test. Female nu/nu mice in an outbred albino background are obtained from Charles River Laboratories (Wilmington, Mass.). Animals are injected subcutaneously on the flank with the desired tumor cell suspension. Several days later, mice with tumors of approximately 150 mm^3 are selected from those injected (staged) and randomly distributed into groups of 5-10. The day of staging is called day 0. Compounds of the invention, usually formulated in saline (exceptions are noted in tables), are administered to animals by intravenous injection or oral gavage on various schedules starting on day 0 or 1, as noted in the tables. The control group in each experiment is dosed with vehicle on the same schedule. Tumor size is measured every 3-7 days with calipers in two orthogonal dimensions, and tumor volume is calculated from the formula volume=[(length×width^2)/2].
# (§2) Tumor/Control (T/C) is obtained by dividing the mean tumor volume of the treated group by the mean tumor volume of the control group on each measurement day. A treatment dose is defined as active if it produced a statistically significant T/C of 0.50 or less. A p value≦0.05, determined by one-side Student's t-test, is required for statistical significance. A treatment dose is defined as toxic if more than 10% of the animals died from a compound-related toxicity.
# [2] = tested on: U87-MG Human Glioblastoma; assay: Human tumor xenograft test, U87-MG; format: in vivo, athymic mice; settings: for T/C on day 0 / T/C on day 3 / T/C on day 7 / T/C on day 10 / T/C on day 13 / T/C on day 17: days 1, 5, 9
# Procedure: as §1, §2
# [3] = tested on: HCT-15 Human Colon Carcinoma; assay: Human tumor xenograft test, HCT-15; format: in vivo, athymic mice; settings: for T/C on day 0 / T/C on day 7 / T/C on day 13 / T/C on day 20: days 1, 8, 15
# Procedure: as §1, §2
# [4] = tested on: LoVo Human Colon Carcinoma; assay: Human tumor xenograft test, LoVo; format: in vivo, athymic mice; settings: for T/C on day 0 / T/C on day 7 / T/C on day 14 / T/C on day 21 / T/C on day 28 / T/C on day 35: days 1, 7, 14
# Procedure: as §1, §2
# [5] = tested on: MAP-rich tubulin; assay: Tubulin polymerization test with MAP-rich tubulin; format: biochemical, bovine; settings: 0.3 μM compound, 20 min, fold enhancement over control
# Method in brief: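 Bovine brain MAP-rich tubulin (1.3 mg/mL) in PEM buffer pH 6.9 with 1 mM GTP, compounds at 0.3 μM final (0.3% DMSO), 24° for 60 min. Turbidity read at 340 nm each minute, baseline-subtracted; mean A340 at 20 min divided by solvent control gives fold enhancement.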
# [6] = A549, 15 mg/kg IV, days 0, 6, 13, 20
# [7] = A549, 20 mg/kg IV, days 0, 6, 13, 20
# [8] = A549, 25 mg/kg IV, days 0, 6, 13, 20
# [9] = A549, 10 mg/kg IV, days 1, 5, 9, 13, 17, 21, 25, 29
# [10] = A549, 20 mg/kg IV, days 1, 5, 9, 13, 17, 21, 25, 29
# [11] = A549, 40 mg/kg IV, days 1, 5, 9, 13, 17, 21, 25, 29
compound,measurement,setting,value
"CNCCCOc1cc(F)c(-c2c(Cl)nc3ncnn3c2N[C@@H](C)C(F)(F)F)c(F)c1.Cl [Example 2a, 5-Chloro-6-{2,6-difluoro-4-[3-(methylamino)propoxy]phenyl}-N-[(1S)-2,2,2-trifluoro-1-methylethyl][1,2,4]triazolo[1,5-a]pyrimidin-7-amine hydrogen chloride]",T/C on day 0,[1]; [6],1.01
same,T/C on day 7,[1]; [6],0.75*
same,T/C on day 14,[1]; [6],0.61**
same,T/C on day 21,[1]; [6],0.83
same,T/C on day 27,[1]; [6],0.75
same,T/C on day 35,[1]; [6],0.76
same,tumor growth inhibition (activity call),"[1]; A549, 15 mg/kg intravenously on days 0, 6, 13, and 20",not at 15 mg/kg
same,T/C on day 0,[1]; [7],0.97
same,T/C on day 7,[1]; [7],0.79
same,T/C on day 14,[1]; [7],0.55**
same,T/C on day 21,[1]; [7],0.59*
same,T/C on day 27,[1]; [7],0.50*
same,T/C on day 35,[1]; [7],0.49*
same,T/C on day 0,[1]; [8],0.99
same,T/C on day 7,[1]; [8],0.72*
same,T/C on day 14,[1]; [8],0.51**
same,T/C on day 21,[1]; [8],0.57*
same,T/C on day 27,[1]; [8],0.48*
same,T/C on day 35,[1]; [8],0.44*
same,tumor growth inhibition (activity call),"[1]; A549, 25 and 20 mg/kg intravenously on days 0, 6, 13, and 20",inhibited the growth
same,tumor growth inhibition (activity call),"[2]; U87-MG, orally single dose on day 0 at 5 or 2.5 mg/kg",not at 5 or 2.5 mg/kg
same,tumor growth inhibition (activity call),"[2]; U87-MG, orally single dose on day 0 at 30, 20, and 10 mg/kg",inhibited the growth
same,T/C on day 0,"[3]; HCT-15, 10 mg/kg IV",1.00
same,T/C on day 7,"[3]; HCT-15, 10 mg/kg IV",0.81
same,T/C on day 13,"[3]; HCT-15, 10 mg/kg IV",1.03
same,T/C on day 20,"[3]; HCT-15, 10 mg/kg IV",0.75
same,T/C on day 0,"[3]; HCT-15, 20 mg/kg IV",1.00
same,T/C on day 7,"[3]; HCT-15, 20 mg/kg IV",0.86
same,T/C on day 13,"[3]; HCT-15, 20 mg/kg IV",0.50*
same,T/C on day 20,"[3]; HCT-15, 20 mg/kg IV",0.43*
same,tumor growth inhibition (activity call),"[3]; HCT-15, 20 mg/kg intravenously on days 1, 8, and 15",active
same,T/C on day 0,"[3]; HCT-15, 25 mg/kg IV",1.00
same,T/C on day 7,"[3]; HCT-15, 25 mg/kg IV",0.78
same,T/C on day 13,"[3]; HCT-15, 25 mg/kg IV",0.60
same,T/C on day 20,"[3]; HCT-15, 25 mg/kg IV",0.44
"C[C@H](Nc1c(-c2c(F)cc(OCCCO)cc2F)c(Cl)nc2ncnn12)C(F)(F)F [Example 20, 3-[4-(5-Chloro-7-{[(1S)-2,2,2-trifluoro-1-methylethyl]amino}[1,2,4]triazolo[1,5-a]pyrimidin-6-yl)-3,5-difluorophenoxy]propan-1-ol]",T/C on day 0,[4]; 30 mg/kg PO,1.00
same,T/C on day 7,[4]; 30 mg/kg PO,0.37*
same,T/C on day 14,[4]; 30 mg/kg PO,0.35**
same,T/C on day 21,[4]; 30 mg/kg PO,0.35
same,T/C on day 28,[4]; 30 mg/kg PO,0.28
same,T/C on day 35,[4]; 30 mg/kg PO,0.35
same,T/C on day 0,[4]; 50 mg/kg PO,1.00
same,T/C on day 7,[4]; 50 mg/kg PO,0.27**
same,T/C on day 14,[4]; 50 mg/kg PO,0.46**
same,T/C on day 21,[4]; 50 mg/kg PO,0.33**
same,T/C on day 28,[4]; 50 mg/kg PO,0.29**
same,T/C on day 35,[4]; 50 mg/kg PO,0.31*
same,tumor growth inhibition (activity call),"[4]; orally on days 1, 7 and 14 at 50 and 30 mg/kg",active
"CC[C@]1(O)C[C@H]2CN(CCc3c([nH]c4ccccc34)[C@@](C(=O)OC)(c3cc4c(cc3OC)N(C=O)[C@H]3[C@@](O)(C(=O)OC)[C@H](OC(C)=O)[C@]5(CC)C=CCN6CC[C@]43[C@@H]65)C2)C1 [Vincristine, reference compound]",A340 Compound/A340 Control,[5],0
"CNCCCOc1cc(F)c(-c2c(Cl)nc3ncnn3c2NCC(F)(F)F)c(F)c1.Cl [Example 3a, 5-Chloro-6-{2,6-difluoro-4-[3-(methylamino)propoxy]phenyl}-N-(2,2,2-trifluoroethyl)[1,2,4]triazolo[1,5-a]pyrimidin-7-amine hydrogen chloride Salt]",T/C on day 0,"[2]; U87-MG, 10 mg/kg PO",0.99
same,T/C on day 3,"[2]; U87-MG, 10 mg/kg PO",1.08
same,T/C on day 7,"[2]; U87-MG, 10 mg/kg PO",0.85
same,T/C on day 10,"[2]; U87-MG, 10 mg/kg PO",0.69**
same,T/C on day 13,"[2]; U87-MG, 10 mg/kg PO",0.52**
same,T/C on day 17,"[2]; U87-MG, 10 mg/kg PO",0.51**
same,T/C on day 0,"[2]; U87-MG, 20 mg/kg PO",1.01
same,T/C on day 3,"[2]; U87-MG, 20 mg/kg PO",0.90
same,T/C on day 7,"[2]; U87-MG, 20 mg/kg PO",0.73
same,T/C on day 10,"[2]; U87-MG, 20 mg/kg PO",0.63**
same,T/C on day 13,"[2]; U87-MG, 20 mg/kg PO",0.42**
same,T/C on day 17,"[2]; U87-MG, 20 mg/kg PO",0.39**
same,T/C on day 0,"[2]; U87-MG, 40 mg/kg PO",1.02
same,T/C on day 3,"[2]; U87-MG, 40 mg/kg PO",0.73
same,T/C on day 7,"[2]; U87-MG, 40 mg/kg PO",0.65**
same,T/C on day 10,"[2]; U87-MG, 40 mg/kg PO",0.48**
same,T/C on day 13,"[2]; U87-MG, 40 mg/kg PO",0.30**
same,T/C on day 17,"[2]; U87-MG, 40 mg/kg PO",0.20**
same,tumor growth inhibition (activity call),"[2]; U-87 MG, oral dosing, 40, 20, and 10 mg/kg",active
"CC(=O)O[C@H]1C(=O)[C@@]2(C)[C@H]([C@H](OC(=O)c3ccccc3)[C@]3(O)C[C@H](OC(=O)[C@H](O)[C@@H](NC(=O)c4ccccc4)c4ccccc4)C(C)=C1C3(C)C)[C@]1(OC(C)=O)CO[C@@H]1C[C@@H]2O [Paclitaxel, reference compound]",A340 Compound/A340 Control,[5],8.5
"CNCCCOc1cc(F)c(-c2c(Cl)nc3ncnn3c2C2CCCCCC2)c(F)c1.O=C(O)C(F)(F)F [Example 32, 3-[4-(5-Chloro-7-cycloheptyl[1,2,4]triazolo[1,5-a]pyrimidin-6-yl)-3,5-difluorophenoxy]-N-methylpropan-1-amine trifluoroacetic acid salt]",T/C on day 0,[4]; 30 mg/kg PO,1.00
same,T/C on day 7,[4]; 30 mg/kg PO,0.55
same,T/C on day 14,[4]; 30 mg/kg PO,0.68
same,T/C on day 21,[4]; 30 mg/kg PO,0.35
same,T/C on day 28,[4]; 30 mg/kg PO,0.43
same,T/C on day 35,[4]; 30 mg/kg PO,0.53
same,T/C on day 0,[4]; 50 mg/kg PO,1.00
same,T/C on day 7,[4]; 50 mg/kg PO,0.41
same,T/C on day 14,[4]; 50 mg/kg PO,0.44*
same,T/C on day 21,[4]; 50 mg/kg PO,0.27*
same,T/C on day 28,[4]; 50 mg/kg PO,0.31
same,T/C on day 35,[4]; 50 mg/kg PO,0.26
same,tumor growth inhibition (activity call),"[4]; orally on days 1, 7 and 14 at 50 mg/kg",active
"C[C@H](Nc1c(-c2c(F)cc(OCCCN(C)C)cc2F)c(Br)nc2ncnn12)C(F)(F)F [Example 25, 5-Bromo-6-{4-[3-(dimethylamino)propoxy]-2,6-difluorophenyl}-N-[(1S)-2,2,2-trifluoro-1-methylethyl][1,2,4]triazolo[1,5-a]pyrimidin-7-amine]",A340 Compound/A340 Control,[5],7.2
"CN(C)CCCOc1cc(F)c(-c2c(Cl)nc3ncnn3c2NCC(F)(F)F)c(F)c1.Cl [Example 4a, 5-Chloro-6-{4-[3-(dimethylamino)propoxy]-2,6-difluorophenyl}-N-(2,2,2-trifluoroethyl)[1,2,4]triazolo[1,5-a]pyrimidin-7-amine Hydrogen chloride Salt]",A340 Compound/A340 Control,[5],8.1
same,T/C on day 0,[1]; [9],0.98
same,T/C on day 7,[1]; [9],0.81
same,T/C on day 14,[1]; [9],0.74
same,T/C on day 21,[1]; [9],0.68
same,T/C on day 27,[1]; [9],0.80
same,T/C on day 35,[1]; [9],0.79
same,T/C on day 0,[1]; [10],0.99
same,T/C on day 7,[1]; [10],0.86
same,T/C on day 14,[1]; [10],0.80
same,T/C on day 21,[1]; [10],0.72
same,T/C on day 27,[1]; [10],0.78
same,T/C on day 35,[1]; [10],0.77
same,T/C on day 0,[1]; [11],0.97
same,T/C on day 7,[1]; [11],0.71
same,T/C on day 14,[1]; [11],0.53**
same,T/C on day 21,[1]; [11],0.46**
same,T/C on day 27,[1]; [11],0.52**
same,T/C on day 35,[1]; [11],0.47**
"C[C@H](Nc1c(-c2c(F)cc(OCCCN(C)C)cc2F)c(Cl)nc2ncnn12)C(F)(F)F.Cl [Example 1a, 5-chloro-6-{4-[3-(dimethylamino)propoxy]-2,6-difluorophenyl}-N-[(1S)-2,2,2-trifluoro-1-methylethyl][1,2,4]triazolo[1,5-a]pyrimidin-7-amine hydrogen chloride Salt]",A340 Compound/A340 Control,[5],6.1
